Measurements taken from patent publication US20170334919A1, “2-((4-AMINO-3-(3-FLUORO-5-HYDROXYPHENYL)-1H-PYRAZOLO[3,4-D]PYRIMIDIN-1 -YL)METHYL)-3-(2-(TRIFLUORO-MET HYL)BENZYL)QUINAZOLIN-4(3H)-ONE DERIVATIVES AND THEIR USE AS PHOSPHOINOSITIDE 3-KINASE INHIBITORS” (RESPIVERT LTD., priority 2013, published 2017).
Where two headings read alike, the source gives them in different places.

What was measured:
[1] = tested on: THP1 cells; assay: Chemotaxis to MCP1; format: cell-based; conditions: Homo sapiens, THP-1; read-out: REC50, THP1 cell chemotaxis to MCP1
Protocol: As a means of assessing PI3K γ dependent cell function, THP1 cell chemotaxis to MCP-1 was evaluated using a 48 well-chemotaxis chamber. THP1 cells from a human leukemic monocyte lymphoma cell line, (purchased from ATCC Manassas, Va.) were maintained in RPMI 1640 (Invitrogen Ltd., Paisley, UK) with 10% FCS at 37° C. Cells were re-suspended in 0.5% BSA/RPM11640 (2×10^6 cells/mL) and incubated for 10 min at 37° C., 5% CO2. Cell suspension aliquots (500 μL) were then treated either with compounds in neat DMSO or with DMSO as vehicle (2.5 μL) for 1hr (37° C., 5% CO2).
MCP1 (50 nM) was prepared in 0.5% BSA/RPM11640. MCP1 solution (50 μL) was added to each well in the bottom plate of a 48-well chemotaxis chamber (AP48, NeuroProbe Inc., Gaithersburg, Md.). A polycarbonate membrane (8 μm) was mounted on the bottom chamber, and then the top plate was mounted on the bottom chamber and filter membrane. […]
A solution of MTT (50 μL) in 10% FCS phenol red-free RPM11640 was added to each well, and the plate was incubated for 2 hr (37° C., 5% CO2). Neat DMSO (100 μL) was added to each well to extract formazan formed from MTT and the plates were shaken lightly for 1 hr prior to measuring the absorbance at 595 nm (Varioskan® Flash, Thermo-Fisher Scientific). […] Relative EC50 values were determined from concentration-inhibition curves using XL-Fit (idbs, Guildford, UK).

[2] = tested on: cigarette smoke-induced cell accumulation and biomarkers in murine BALF; assay: Cigarette smoke model; format: in vivo, A/J mice
Protocol: A/J mice (males, 5 weeks old) were exposed to cigarette smoke (4% cigarette smoke, diluted with compressed air) for 30 min/day for 11 days using a Tobacco Smoke Inhalation Experiment System for small animals (Model SIS-CS; Sibata Scientific Technology, Tokyo, Japan). Test substances were administered once daily for 3 days after the final cigarette smoke exposure (intra-nasal dose comprising 35 μL of solution in 50% DMSO/isotonic saline).
At 12 hr after administration of the last dose, animals were anesthetized, the trachea was cannulated and bronchial alveolar lavage (BAL) was carried out by the instillation into and then withdawal from the lungs, of PBS (100 mL/kg). Total cell numbers in the BALF samples were measured using a haemocytometer under a phase-contrast microscope. The proportions of alveolar macrophages and neutrophils were determined by FACS analysis using anti-mouse MOMA2-FITC (macrophage) or anti-mouse 7/4 (neutrophil).
Cells were suspended in PBS and were incubated with anti-MOMA2-FITC (2 μg/mL, Catalogue no SM065F, Acris Antibodies GmbH, Herford, Germany) or anti-7/4-FITC (2 μg/mL, Catalogue no CL050F, Acris Antibodies GmbH, Herford, Germany) for 30 min at 30° C., and also counterstained with propidium iodide (2 μg/mL) to allow exclusion of necrotic cells. The cells were washed with PBS, and transferred to FACS tubes. Samples was set in a flow cytometer (ALTRA II; Beckman Coulter Japan, Tokyo, Japan), and a single-parameter FL2 [PMT2] (FITC) histogram with log x-axis was plotted to illustrate relative intensity of FITC.
Data files are stored for subsequent analysis using Kaluza analysis software (ver. 1.2) to calculate the proportion of each cell type. The levels of CXCL1(KC), MCP1, TNFα, IL-17 or osteopontin in BALF were determined using Quentikine® mouse KC, MCP1, TNFα, IL-17 or osteopontin ELISA kit (R&D systems, Inc., Minneapolis, Minn., USA). The presence of malondialdehyde was measured using OxiSelect® TBARS Assay Kit (MDA Quantitation; Cell Biolabs Inc, San Diego, Calif., USA).

[3] = tested on: PBMCs; assay: Cytostim-induced cytokine production in PBMCs; format: cell-based; conditions: Homo sapiens, PBMC
Protocol: As a means of assessing PI3Kδ-dependent cell function, cytostim-induced IL-4, IL-5, IL-13 and IFNγ production in PBMCs were evaluated by Luminex multiplex assay. All healthy volunteers were recruited by Quintiles Limited (London, UK), and blood samples were delivered to Respivert Ltd. This study was approved by the local Ethics Committee, and all subjects gave written informed consent.
PBMC suspensions (200 μL; 2×10^6 cells/mL) were added to a 96-well plate. Cells were treated with either test compounds in neat DMSO or DMSO as vehicle (2 μL) and incubated at RT for 1 hr. Cytostim (Miltentyi Biotec, Surrey, UK) was introduced at a ratio of 1:50 and the cells were incubated for 20 hr (37° C.; 5% CO2). Plates were spun at 500×g for 5 min and the supernatant collected. A high sensitivity cytokine magnetic bead kit (#HSCYTMAG-60SK, Millipore, Watford, UK) was used to measure the four analytes (IL-4, IL-5, IL-13 and IFNγ) by Luminex as follows: The magnetic antibody beads were multiplexed and incubated in a 96-well plate with standard, media only or sample (50 μL) overnight with shaking at 4° C. After washing twice with Millipore wash buffer provided in the kit using a magnetic plate washer, the beads were incubated for 1 hr with detection antibody (50 μL) with shaking at RT. A streptavidin-phycoerythrin solution provided in the kit was added for 30 min with shaking at RT. After washing, the beads were re-suspended in sheath fluid (150 μL) and analysed immediately. The Luminex system was set up to count 50 beads and the amount of each analyte in the supernatant was calculated against a standard curve. The IC50 values were determined from concentration-inhibition curves using XL-Fit (IDBS, Guildford, UK)

[4] = CS + Compound (I) 0.02 mg/mL intra-nasal
[5] = CS + Compound (I) 0.2 mg/mL intra-nasal
[6] = CS + Compound (I) 2 mg/mL intra-nasal

- EC50 [1]: 33.9 nM
SMILES: COCCOCCOCC#Cc1cccc2nc(Cn3nc(-c4cc(O)cc(F)c4)c4c(N)ncnc43)n(Cc3ccccc3C(F)(F)F)c(=O)c12 [Compound (I), 2-((4-Amino-3-(3-fluoro-5-hydroxyphenyl)-1H-pyrazolo[3,4-d]pyrimidin-1-yl)methyl)-5-(3-(2-(2-methoxyethoxy)ethoxy)prop-1-yn-1-yl)-3-(2-(trifluoromethyl)benzyl)quinazolin-4(3H)-one]
- Cell numbers in BAL, Macrophages, % inhibition [2, 4]: 32%
- Cell numbers in BAL, Neutrophils, % inhibition [2, 4]: 0.2 (26) %
- Cell numbers in BAL, Macrophages, % inhibition [2, 5]: 0.2 (63) %
- Cell numbers in BAL, Neutrophils, % inhibition [2, 5]: 54%
- Cell numbers in BAL, Macrophages, % inhibition [2, 6]: 0.3 (79) %
- Cell numbers in BAL, Neutrophils, % inhibition [2, 6]: 0.1 (68) %
- potency versus compound A, cigarette-smoke induced cell accumulation in murine BALF ([2]; contemporaneous study, FIG. 2): more potent inhibitor of cigarette-smoke induced cell accumulation in murine BALF than is compound A
- IC50 ([3]; read-out: IC50, Cytostim-induced IFNγ in PBMCs): 13.8 nM
- IC50 ([3]; read-out: IC50, Cytostim-induced IL-4 in PBMCs): < 1.4 nM
- IC50 ([3]; read-out: IC50, Cytostim-induced IL-5 in PBMCs): < 1.4 nM
- IC50 ([3]; read-out: IC50, Cytostim-induced IL-13 in PBMCs): < 1.4 nM
